In PubChem BioAssay AID270 (DTP/NCI, 2004):
Values joined by “and” are separate entries in the source; they are usually repeats but may differ in a detail not shown here. Equal entries are not always repeated. Results filed as inconclusive are left out.

Tested on: BDF1 mice, s.c. Lewis lung carcinoma, T/C %
Test: NCI In Vivo Anticancer Drug Screen. Data for tumor model Lewis Lung Carcinoma (subcutaneous) in B6D2F1 (BDF1) mice
Method in brief: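 Readout: survival or tumor size, expressed as treated (T) over vehicle control (C). Transplantable tumor implanted in mice; compound given to the treated group.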

SMILES: O=P1(N(CCCl)CCCl)NCCCO1 (stereo not given)
- T/C (endpoint: mean survival time, dose: 100.0 mg/kg/injection, schedule: Q08DX002 (ip), vehicle: saline, higher = longer survival): 188 % of control
- T/C (endpoint: mean survival time, dose: 300.0 mg/kg/injection, schedule: Q08DX002 (ip), vehicle: saline, higher = longer survival): 117 % of control
- T/C (endpoint: mean tumor weight (est.), dose: 65.0 mg/kg/injection, schedule: Q01DX009 (ip), vehicle: saline, higher = larger tumour): 3 % of control
- T/C (endpoint: mean tumor weight (est.), dose: 108.0 mg/kg/injection, schedule: Q01DX001 (ip), vehicle: saline, higher = larger tumour): 19 % of control and 37 % of control
- T/C (endpoint: mean tumor weight (est.), dose: 300.0 mg/kg/injection, schedule: Q01DX001 (ip), vehicle: saline, higher = larger tumour): 15 % of control
- T/C (endpoint: mean tumor weight, dose: 6.25 mg/kg/injection, schedule: Q01DX011 (ip), vehicle: saline, higher = larger tumour): 70 % of control
- T/C (endpoint: mean tumor weight, dose: 12.0 mg/kg/injection, schedule: Q01DX011 (ip), vehicle: saline, higher = larger tumour): 55 % of control
- T/C (endpoint: mean tumor weight, dose: 12.5 mg/kg/injection, schedule: Q01DX011 (ip), vehicle: saline, higher = larger tumour): 74 % of control
- T/C (endpoint: mean tumor weight, dose: 17.0 mg/kg/injection, schedule: Q01DX011 (ip), vehicle: saline, higher = larger tumour): 43 % of control
- T/C (endpoint: mean tumor weight, dose: 22.5 mg/kg/injection, schedule: Q01DX011 (ip), vehicle: saline, higher = larger tumour): 19 % of control and 40 % of control
- T/C (endpoint: mean tumor weight, dose: 25.0 mg/kg/injection, schedule: Q01DX011 (ip), vehicle: saline, higher = larger tumour): 3 % of control and 5 % of control and 12 % of control
- T/C (endpoint: mean tumor weight, dose: 45.0 mg/kg/injection, schedule: Q01DX011 (ip), vehicle: saline, higher = larger tumour): 2 % of control and 11 % of control
- T/C (endpoint: median survival time, dose: 5.0 mg/kg/injection, schedule: Q01DX011 (ip), vehicle: saline, higher = longer survival): 107 % of control
- T/C (endpoint: median survival time, dose: 10.0 mg/kg/injection, schedule: Q01DX001 (ip), vehicle: saline, higher = longer survival): 100 % of control
- T/C (endpoint: median survival time, dose: 10.0 mg/kg/injection, schedule: Q01DX005 (ip), vehicle: saline, higher = longer survival): 153 % of control and 160 % of control
- T/C (endpoint: median survival time, dose: 10.0 mg/kg/injection, schedule: Q01DX009 (ip), vehicle: saline, higher = longer survival): 90 % of control
- T/C (endpoint: median survival time, dose: 10.0 mg/kg/injection, schedule: Q01DX011 (ip), vehicle: saline, higher = longer survival): 89 % of control
- T/C (endpoint: median survival time, dose: 20.0 mg/kg/injection, schedule: Q01DX001 (ip), vehicle: saline, higher = longer survival): 113 % of control
- T/C (endpoint: median survival time, dose: 20.0 mg/kg/injection, schedule: Q01DX005 (ip), vehicle: saline, higher = longer survival): 113 % of control
- T/C (endpoint: median survival time, dose: 20.0 mg/kg/injection, schedule: Q01DX009 (ip), vehicle: saline, higher = longer survival): 104 % of control
- T/C (endpoint: median survival time, dose: 20.0 mg/kg/injection, schedule: Q01DX011 (ip), vehicle: saline, higher = longer survival): 89 % of control
- T/C (endpoint: median survival time, dose: 23.0 mg/kg/injection, schedule: Q01DX009 (ip), vehicle: saline, higher = longer survival): 121 % of control and 124 % of control
- T/C (endpoint: median survival time, dose: 25.0 mg/kg/injection, schedule: Q01DX001 (ip), vehicle: saline, higher = longer survival): 98 % of control and 101 % of control
- T/C (endpoint: median survival time, dose: 25.0 mg/kg/injection, schedule: Q01DX004 (ip), vehicle: saline, higher = longer survival): 154 % of control
- T/C (endpoint: median survival time, dose: 26.0 mg/kg/injection, schedule: Q01DX001 (ip), vehicle: saline, higher = longer survival): 94 % of control and 95 % of control
- T/C (endpoint: median survival time, dose: 39.0 mg/kg/injection, schedule: Q01DX009 (ip), vehicle: saline, higher = longer survival): 91 % of control
- T/C (endpoint: median survival time, dose: 40.0 mg/kg/injection, schedule: Q01DX001 (ip), vehicle: saline, higher = longer survival): 88 % of control
- T/C (endpoint: median survival time, dose: 40.0 mg/kg/injection, schedule: Q01DX009 (ip), vehicle: saline, higher = longer survival): 222 % of control
- T/C (endpoint: median survival time, dose: 43.0 mg/kg/injection, schedule: Q01DX001 (ip), vehicle: saline, higher = longer survival): 112 % of control and 117 % of control
- T/C (endpoint: median survival time, dose: 44.0 mg/kg/injection, schedule: Q01DX005 (ip), vehicle: saline, higher = longer survival): 184 % of control and 233 % of control
- T/C (endpoint: median survival time, dose: 44.4 mg/kg/injection, schedule: Q04DX003 (ip), vehicle: saline, higher = longer survival): 105 % of control and 224 % of control
- T/C (endpoint: median survival time, dose: 50.0 mg/kg/injection, schedule: Q01DX001 (ip), vehicle: saline, higher = longer survival): 112 % of control and 117 % of control
- T/C (endpoint: median survival time, dose: 50.0 mg/kg/injection, schedule: Q01DX001 (ip), vehicle: water, higher = longer survival): 118 % of control
- T/C (endpoint: median survival time, dose: 50.0 mg/kg/injection, schedule: Q01DX004 (ip), vehicle: saline, higher = longer survival): 225 % of control
- T/C (endpoint: median survival time, dose: 50.0 mg/kg/injection, schedule: Q01DX005 (ip), vehicle: saline, higher = longer survival): 158 % of control
- T/C (endpoint: median survival time, dose: 50.0 mg/kg/injection, schedule: Q04DX003 (sc), vehicle: saline, higher = longer survival): 208 % of control and 210 % of control
- T/C (endpoint: median survival time, dose: 66.7 mg/kg/injection, schedule: Q04DX003 (ip), vehicle: saline, higher = longer survival): 167 % of control and 233 % of control
- T/C (endpoint: median survival time, dose: 67.0 mg/kg/injection, schedule: Q01DX005 (ip), vehicle: saline, higher = longer survival): 220 % of control
- T/C (endpoint: median survival time, dose: 70.0 mg/kg/injection, schedule: Q01DX001 (ip), vehicle: saline, higher = longer survival): 108 % of control and 112 % of control
- T/C (endpoint: median survival time, dose: 72.0 mg/kg/injection, schedule: Q01DX001 (ip), vehicle: saline, higher = longer survival): 117 % of control
- T/C (endpoint: median survival time, dose: 80.0 mg/kg/injection, schedule: Q01DX009 (ip), vehicle: saline, higher = longer survival): 100 % of control
- T/C (endpoint: median survival time, dose: 100.0 mg/kg/injection, schedule: Q01DX001 (ip), vehicle: water, higher = longer survival): 190 % of control
- T/C (endpoint: median survival time, dose: 100.0 mg/kg/injection, schedule: Q01DX005 (ip), vehicle: saline, higher = longer survival): 207 % of control
- T/C (endpoint: median survival time, dose: 100.0 mg/kg/injection, schedule: Q04DX003 (ip), vehicle: saline, higher = longer survival): 192 % of control and 233 % of control
- T/C (endpoint: median survival time, dose: 100.0 mg/kg/injection, schedule: Q08DX002 (ip), vehicle: saline, higher = longer survival): 208 % of control
- T/C (endpoint: median survival time, dose: 100.0 mg/kg/injection, schedule: Q11DX002 (ip), vehicle: saline, higher = longer survival): 163 % of control
- T/C (endpoint: median survival time, dose: 150.0 mg/kg/injection, schedule: Q04DX003 (ip), vehicle: saline, higher = longer survival): 233 % of control
- T/C (endpoint: median survival time, dose: 150.0 mg/kg/injection, schedule: Q07DX002 (ip), vehicle: saline, higher = longer survival): 233 % of control
- T/C (endpoint: median survival time, dose: 150.0 mg/kg/injection, schedule: Q07DX004 (ip), vehicle: saline, higher = longer survival): 221 % of control
- T/C (endpoint: median survival time, dose: 150.0 mg/kg/injection, schedule: Q11DX002 (ip), vehicle: saline, higher = longer survival): 150 % of control and 165 % of control
- T/C (endpoint: median survival time, dose: 200.0 mg/kg/injection, schedule: Q04DX003 (sc), vehicle: saline, higher = longer survival): 85 % of control
- T/C (endpoint: median survival time, dose: 225.0 mg/kg/injection, schedule: Q01DX001 (ip), vehicle: saline, higher = longer survival): 153 % of control
- T/C (endpoint: median survival time, dose: 225.0 mg/kg/injection, schedule: Q07DX002 (ip), vehicle: saline, higher = longer survival): 173 % of control
- T/C (endpoint: median survival time, dose: 225.0 mg/kg/injection, schedule: Q09DX002 (ip), vehicle: saline, higher = longer survival): 183 % of control
- T/C (endpoint: median survival time, dose: 225.0 mg/kg/injection, schedule: Q11DX002 (ip), vehicle: saline, higher = longer survival): 166 % of control and 189 % of control
- T/C (endpoint: median survival time, dose: 230.0 mg/kg/injection, schedule: Q01DX001 (ip), vehicle: saline, higher = longer survival): 154 % of control
- T/C (endpoint: median survival time, dose: 300.0 mg/kg/injection, schedule: Q07DX002 (ip), vehicle: saline, higher = longer survival): 173 % of control
- T/C (endpoint: median survival time, dose: 300.0 mg/kg/injection, schedule: Q08DX002 (ip), vehicle: saline, higher = longer survival): 100 % of control
- T/C (endpoint: median survival time, dose: 333.0 mg/kg/injection, schedule: Q01DX001 (ip), vehicle: saline, higher = longer survival): 157 % of control and 193 % of control
- T/C (endpoint: median survival time, dose: 500.0 mg/kg/injection, schedule: Q01DX001 (ip), vehicle: saline, higher = longer survival): 72 % of control
- T/C (endpoint: median survival time, dose: 556.0 mg/kg/injection, schedule: Q01DX001 (ip), vehicle: saline, higher = longer survival): 47 % of control
- T/C (endpoint: median tumor weight (est.), dose: 25.0 mg/kg/injection, schedule: Q01DX009 (ip), vehicle: saline, higher = larger tumour): 50 % of control
- T/C (endpoint: median tumor weight (est.), dose: 50.0 mg/kg/injection, schedule: Q01DX009 (ip), vehicle: saline, higher = larger tumour): 11 % of control and 19 % of control
- T/C (endpoint: median tumor weight (est.), dose: 75.0 mg/kg/injection, schedule: Q01DX001 (ip), vehicle: saline, higher = larger tumour): 76 % of control
- T/C (endpoint: median tumor weight (est.), dose: 103.0 mg/kg/injection, schedule: Q01DX001 (ip), vehicle: saline, higher = larger tumour): 38 % of control
- T/C (endpoint: median tumor weight (est.), dose: 150.0 mg/kg/injection, schedule: Q01DX001 (ip), vehicle: saline, higher = larger tumour): 34 % of control
- T/C (endpoint: median tumor weight (est.), dose: 209.0 mg/kg/injection, schedule: Q01DX001 (ip), vehicle: saline, higher = larger tumour): 16 % of control
- T/C (endpoint: median tumor weight (est.), dose: 300.0 mg/kg/injection, schedule: Q01DX001 (ip), vehicle: saline, higher = larger tumour): 2 % of control
- T/C (endpoint: median tumor weight (est.), dose: 312.0 mg/kg/injection, schedule: Q01DX001 (ip), vehicle: saline, higher = larger tumour): 7 % of control

SMILES: O=[N+]([O-])c1ccc([I+]c2ccccc2)cc1
- T/C (endpoint: median survival time, dose: 12.5 mg/kg/injection, schedule: Q01DX009 (ip), vehicle: Klucel (hydroxypropylcellulose) (HPC), higher = longer survival): 91 % of control
- T/C (endpoint: median survival time, dose: 25.0 mg/kg/injection, schedule: Q01DX009 (ip), vehicle: Klucel (hydroxypropylcellulose) (HPC), higher = longer survival): 95 % of control

SMILES: COc1ccc(Nc2ccnc3cc(Cl)ccc23)cc1CN(CCCl)CCCl
- T/C (endpoint: mean tumor weight, dose: 0.06 mg/kg/injection, schedule: Q01DX011 (ip), vehicle: other, higher = larger tumour): 113 % of control
- T/C (endpoint: mean tumor weight, dose: 0.12 mg/kg/injection, schedule: Q01DX011 (ip), vehicle: other, higher = larger tumour): 94 % of control
- T/C (endpoint: mean tumor weight, dose: 0.25 mg/kg/injection, schedule: Q01DX011 (ip), vehicle: other, higher = larger tumour): 85 % of control
- T/C (endpoint: mean tumor weight, dose: 0.5 mg/kg/injection, schedule: Q01DX011 (ip), vehicle: other, higher = larger tumour): 26 % of control and 44 % of control
- T/C (endpoint: mean tumor weight, dose: 1.0 mg/kg/injection, schedule: Q01DX011 (ip), vehicle: other, higher = larger tumour): 32 % of control

SMILES: O=C(Nc1ccc(C2=NCCN2)cc1)c1cc(Cl)cc(C(=O)Nc2ccc(C3=NCCN3)cc2)c1
- T/C (endpoint: mean tumor weight, dose: 100.0 mg/kg/injection, schedule: Q01DX011 (ip), vehicle: saline, higher = larger tumour): 93 % of control
- T/C (endpoint: mean tumor weight, dose: 200.0 mg/kg/injection, schedule: Q01DX011 (ip), vehicle: saline, higher = larger tumour): 66 % of control
- T/C (endpoint: mean tumor weight, dose: 400.0 mg/kg/injection, schedule: Q01DX011 (ip), vehicle: saline, higher = larger tumour): 51 % of control
- T/C (endpoint: mean tumor weight, dose: 800.0 mg/kg/injection, schedule: Q01DX011 (ip), vehicle: saline, higher = larger tumour): 21 % of control
